Assay results published in ChEMBL document CHEMBL1201862, “PubChem BioAssay data set” (2004).
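48-hour exposure; five concentrations; linearly interpolated endpoints. GI50 marks 50% less growth.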 Activity calls are given as the source filed them. Rule as the data show it: active = GI50 up to about 1.1 µM and inactive = higher. Where a SMILES comes first, the peptide text is derived from it. The star is where a group is joined. Cbz = O=C(OCc1ccccc1)*

How the values were obtained:
Experiment in all cases: DTP human tumour cell line panel, 48 h
A498 = test system: A498
A549 = test system: A549
BT-549 = test system: BT-549
EKVX = test system: EKVX
HT-29 = test system: HT-29
K562 = test system: K562
MCF7 = test system: MCF7
MDA-MB-435 = test system: MDA-MB-435
NCI-H460 = test system: NCI-H460
NCI-H522 = test system: NCI-H522
NCI/ADR-RES = test system: NCI/ADR-RES
OVCAR-4 = test system: OVCAR-4
SF-295 = test system: SF-295
SK-MEL-2 = test system: SK-MEL-2
SNB-19 = test system: SNB-19
SNB-75 = test system: SNB-75
SW-620 = test system: SW-620
UACC-257 = test system: UACC-257
UACC-62 = test system: UACC-62
HL-60 = test system: HL-60

Measured: GI50

CCCCn1cnc2c(SC)ncnc21
inactive: A498 > 100 µM | A549 > 100 µM | BT-549 > 100 µM | EKVX 41.7 µM | HT-29 > 100 µM | K562 44.8 µM | MCF7 > 100 µM | MDA-MB-435 > 100 µM | NCI-H460 > 100 µM | NCI-H522 > 100 µM | NCI/ADR-RES > 100 µM | OVCAR-4 > 100 µM | SF-295 > 100 µM | SK-MEL-2 > 100 µM | SNB-19 > 100 µM | SNB-75 > 100 µM | SW-620 > 100 µM | UACC-257 > 100 µM | UACC-62 > 100 µM

Clc1ccccc1-c1nn2c(CCCCCCCCc3nnc4sc(-c5ccccc5Cl)nn34)nnc2s1
inactive: A498 > 100 µM | A549 > 100 µM | BT-549 > 100 µM | EKVX > 100 µM | HT-29 52.1 µM | K562 > 100 µM | MCF7 52.2 µM | MDA-MB-435 > 100 µM | NCI-H460 > 100 µM | NCI-H522 77.3 µM | NCI/ADR-RES > 100 µM | OVCAR-4 > 100 µM | SF-295 > 100 µM | SK-MEL-2 > 100 µM | SNB-19 > 100 µM | SNB-75 > 100 µM | SW-620 > 100 µM | UACC-257 > 100 µM | UACC-62 > 100 µM

CNc1ncnc2c1cnn2Cc1cn(COCC(O)CO)nn1 (configuration not stated)
inactive: A498 > 100 µM | A549 > 100 µM | BT-549 > 100 µM | EKVX > 100 µM | HL-60 > 100 µM | HT-29 > 100 µM | MCF7 > 100 µM | MDA-MB-435 > 100 µM | NCI/ADR-RES > 100 µM | OVCAR-4 > 100 µM | SF-295 > 100 µM | SK-MEL-2 > 100 µM | SNB-19 > 100 µM | SW-620 > 100 µM | UACC-257 > 100 µM | UACC-62 > 100 µM

CC(=O)NC(Cc1ccc(O)cc1)C(=O)O (configuration not stated)
inactive: A498 > 100 µM | A549 > 100 µM | BT-549 > 100 µM | EKVX > 100 µM | HL-60 > 100 µM | HT-29 > 100 µM | K562 > 100 µM | MCF7 > 100 µM | MDA-MB-435 > 100 µM | NCI-H460 > 100 µM | NCI-H522 > 100 µM | NCI/ADR-RES > 100 µM | OVCAR-4 > 100 µM | SF-295 > 100 µM | SK-MEL-2 > 100 µM | SNB-19 > 100 µM | SW-620 > 100 µM | UACC-257 > 100 µM | UACC-62 > 100 µM

Clc1nc2c(C#Cc3ccccc3)ncnc2n1C1CCCCO1 (configuration not stated)
inactive: A549 16.5 µM | BT-549 14.8 µM | EKVX 2.55 µM | HL-60 11.7 µM | HT-29 12.4 µM | K562 30.3 µM | MCF7 8.32 µM | MDA-MB-435 7 µM | NCI-H460 15.7 µM | NCI-H522 7.94 µM | NCI/ADR-RES 25.8 µM | OVCAR-4 9.51 µM | SF-295 22.6 µM | SK-MEL-2 12.9 µM | SNB-19 19.6 µM | SNB-75 18.1 µM | SW-620 16.3 µM | UACC-257 15 µM | UACC-62 13.4 µM

N=C(N)NS(=O)(=O)c1ccc(NC(=O)c2c3ccccc3nc3ccccc23)cc1
inactive: A498 > 100 µM | A549 > 100 µM | BT-549 > 100 µM | EKVX > 100 µM | HT-29 > 100 µM | K562 > 10 µM | MCF7 > 100 µM | MDA-MB-435 > 100 µM | NCI-H460 > 100 µM | NCI-H522 > 100 µM | NCI/ADR-RES > 100 µM | OVCAR-4 > 100 µM | SF-295 > 100 µM | SK-MEL-2 > 100 µM | SNB-19 86.5 µM | SNB-75 > 100 µM | SW-620 > 100 µM | UACC-257 > 100 µM | UACC-62 > 100 µM

CC(C)(C)OC(=O)NC(C)(C)C(=O)NCCC(=O)O
inactive: A498 > 100 µM | A549 > 100 µM | BT-549 > 100 µM | EKVX > 100 µM | HT-29 > 100 µM | K562 > 100 µM | MCF7 > 100 µM | MDA-MB-435 > 100 µM | NCI-H460 > 100 µM | NCI-H522 > 100 µM | NCI/ADR-RES > 100 µM | OVCAR-4 > 100 µM | SF-295 > 100 µM | SK-MEL-2 > 100 µM | SNB-19 > 100 µM | SNB-75 > 100 µM | SW-620 > 100 µM | UACC-257 > 100 µM | UACC-62 > 100 µM

COc1cc(/C=C2/SC(c3ccccc3)N(c3ccccc3Cl)C2=O)cc(OC)c1OC (configuration not stated)
inactive: A498 87.3 µM | A549 36.3 µM | BT-549 28.2 µM | EKVX 44.1 µM | HL-60 16.5 µM | K562 31.2 µM | MCF7 35.9 µM | MDA-MB-435 27.2 µM | NCI-H460 43.7 µM | NCI-H522 14.9 µM | NCI/ADR-RES 25.9 µM | OVCAR-4 41.6 µM | SF-295 32.1 µM | SK-MEL-2 33.9 µM | SNB-19 28.2 µM | SW-620 37.8 µM | UACC-257 42.2 µM | UACC-62 37.9 µM

Cc1ccccc1/N=N/c1ccc(/N=N/c2c(O)ccc3cc(S(=O)(=O)O)cc(S(=O)(=O)O)c23)c(C)c1
inactive: A549 > 100 µM | BT-549 > 100 µM | EKVX > 100 µM | HL-60 > 100 µM | HT-29 > 100 µM | K562 > 100 µM | MCF7 > 100 µM | MDA-MB-435 > 100 µM | NCI-H460 > 100 µM | NCI-H522 > 100 µM | NCI/ADR-RES > 100 µM | OVCAR-4 > 100 µM | SF-295 > 100 µM | SK-MEL-2 > 100 µM | SNB-19 > 100 µM | SNB-75 > 100 µM | SW-620 > 100 µM | UACC-257 > 100 µM | UACC-62 > 100 µM

CC1CN(c2cc3c(cc2F)c(=O)c(C(=O)O)cn3-c2ccc(N3CCN(C)CC3)cn2)CC(C)N1 (configuration not stated)
inactive: A498 > 100 µM | A549 > 100 µM | BT-549 > 100 µM | EKVX > 100 µM | HL-60 > 100 µM | HT-29 > 100 µM | K562 65.6 µM | MCF7 98.9 µM | MDA-MB-435 > 100 µM | NCI-H460 > 100 µM | NCI/ADR-RES > 100 µM | OVCAR-4 > 100 µM | SF-295 > 100 µM | SNB-19 70 µM | SNB-75 > 100 µM | SW-620 98.4 µM | UACC-257 > 100 µM | UACC-62 > 100 µM

O=C1/C(=C2\Sc3c(ccc(Cl)c3Cl)C2=O)Sc2c1ccc(Cl)c2Cl
inactive: A498 > 100 µM | A549 > 100 µM | BT-549 > 100 µM | EKVX > 100 µM | HT-29 > 100 µM | K562 > 100 µM | MCF7 > 100 µM | MDA-MB-435 > 100 µM | NCI-H460 > 100 µM | NCI-H522 > 100 µM | NCI/ADR-RES > 100 µM | OVCAR-4 > 100 µM | SF-295 33.1 µM | SK-MEL-2 > 100 µM | SNB-19 > 100 µM | SNB-75 20.3 µM | SW-620 > 100 µM | UACC-257 > 100 µM | UACC-62 > 100 µM

Cc1nc2ccc(S(=O)(=O)Nc3ccccc3)cc2c(=O)n1NC(=O)CNc1ccccc1
inactive: A549 > 100 µM | BT-549 > 100 µM | EKVX > 100 µM | HL-60 > 100 µM | HT-29 > 100 µM | K562 > 100 µM | MCF7 > 100 µM | MDA-MB-435 > 100 µM | NCI-H460 > 100 µM | NCI-H522 > 100 µM | NCI/ADR-RES > 100 µM | OVCAR-4 > 100 µM | SF-295 > 100 µM | SK-MEL-2 > 100 µM | SNB-19 > 100 µM | SNB-75 > 100 µM | SW-620 > 100 µM | UACC-257 > 100 µM | UACC-62 > 100 µM

COc1cc(C=C2C(C)=NN(c3cccc(Cl)c3)C23SCC(=O)N3c2nc3ccccc3s2)ccc1O (configuration not stated)
inactive: A498 26.4 µM | A549 29.6 µM | BT-549 25.9 µM | EKVX 39.5 µM | HL-60 3.72 µM | HT-29 33 µM | K562 17.3 µM | MCF7 27.7 µM | MDA-MB-435 29.4 µM | NCI-H460 35.6 µM | NCI-H522 17.9 µM | NCI/ADR-RES 33 µM | OVCAR-4 36.2 µM | SF-295 33.6 µM | SK-MEL-2 19.4 µM | SNB-19 31.8 µM | SW-620 27.3 µM | UACC-257 32.7 µM | UACC-62 26.7 µM

O=C1CCCCC/C1=C\c1ccc([N+](=O)[O-])cc1
inactive: A498 35.2 µM | A549 36.5 µM | BT-549 23 µM | EKVX 35.3 µM | HL-60 28.9 µM | HT-29 30.3 µM | K562 50 µM | MCF7 46.3 µM | MDA-MB-435 38.1 µM | NCI-H460 20.1 µM | NCI/ADR-RES 37.8 µM | SF-295 35.2 µM | SK-MEL-2 33 µM | SNB-19 29.4 µM | SNB-75 29.7 µM | SW-620 39.9 µM | UACC-257 20.9 µM | UACC-62 27.8 µM

COC(=O)C(CC(C)C)NC(=O)C(CCCNC(=N)N)NC(=O)OCc1ccccc1 (stereo not drawn) (Cbz-Arg-Leu-OMe; configuration not given here)
inactive: A549 > 100 µM | BT-549 > 100 µM | EKVX > 100 µM | HL-60 > 100 µM | HT-29 > 100 µM | K562 > 100 µM | MCF7 > 100 µM | MDA-MB-435 > 100 µM | NCI-H460 > 100 µM | NCI-H522 78.5 µM | NCI/ADR-RES > 100 µM | OVCAR-4 > 100 µM | SF-295 > 100 µM | SNB-19 > 100 µM | SNB-75 72.6 µM | SW-620 > 100 µM | UACC-62 > 100 µM
